Read-outs that look alike come from different tables or passages of the source.
How the values were obtained:
[1] = tested on: Human breast cancer cell line [MDA-MB-231]; assay: Anti-proliferative activity (WST-8) of BRD4 targeted PROTAC in MDA-MB-231; assay type: cell-based; settings: Homo sapiens, MDA-MB-231, 72 hours
Procedure: (§1) Human breast cancer cell line [MDA-MB-231] was cultured in RPMI medium with 10% petal bovine serum, penicillin [100 U/ml] and streptomycin [[…]]. The synthesized compound was prepared as a stock solution of 10 mM or 50 mM dissolved in DMSO [dimethyl sulfoxide], and it was sequentially diluted to treat the cell line.
In order to observe inhibition of cell growth, cells were aliquoted into concentrations of 5,000 cells/well at 96 well plates, and then were treated with samples prepared at various concentrations for 72 hours. The cell survival was calculated by steps of adding in each well […] of water soluble tetrazolium salt (WST-8) which produces formazon in response to dehydrogenase present in the electron transport chain in mitochondria, incubating for 2 hours, measuring the absorbance at 450 nm, and calculating by GraphicPad Prism 8.0 software.

BRD4 = BRD4 (Homo sapiens, UniProt O60885); assay: BRD4 protein degradation by western blot in MDA-MB-231 cells; assay type: cell-based; set-up: BRD4 expressed in cells; endogenous in cells; host or cells: MDA-MB-231; settings: MDA-MB-231, 24 hours; for DC50: 50% inhibition of protein expression, read-out: DC50 of BRD4-targeted PROTAC
Procedure: as §1
To evaluate the PROTAC's degradation ability to BRD4 expressed in cells, the cells were aliquoted into a 6 well plate at a concentration of 5×10^5 cells/ml, and then the sample was treated for 24 hours. In order to conduct western blotting assay to confirm protein expression, the cell treated with the compound was treated for 30 minutes with 70 μL of RIPA buffer wherein protease inhibitor is added. Then, cell lysate was collected on ice using a scraper and centrifuged at 4° C. 15,000 rpm for 30 minutes to obtain a supernatant containing protein. Then, SDS-PAGE is conducted for 10 μg of protein per each sample, and the protein is transferred to a membrane. The protein is reacted with antibodies of anti-BRD4, anti-tubulin and anti-GAPDH at 4° C. for 16 hours, and then, reacted with secondary antibodies at room temperature for 1 hour. The protein expression is confirmed using SUPERSIGNAL™ WEST PICO PLUS chemiluminescence substrate and image analyzer. The protein expression was normalized based on the expression value of β-tublin or GAPDH. The amount of protein expression in each sample was measured in % based on the sample treated with 0.1% DMSO vehicle which was set to 100%. The amount of protein expression was quantified using the IMAGE J PROGRAM. The change in the amount of protein expression due to the treatment of compound (DC50: the concentration of compounds where the 50% inhibition of protein expression is achieved) was calculated using […] PRISM 8.0 software.

[2] = WST-8, read-out: IC50 of BRD4-targeted PROTAC (cell proliferation)
[3] = read-out: concentration at which cancer cell proliferation is effectively inhibited

Cc1sc2c(c1C)C(c1ccc(Cl)cc1)=N[C@@H](CC(=O)NCCCCCNc1cccc3cnn(C4CCC(=O)NC4=O)c(=O)c13)c1nnc(C)n1-2 (stereo partly drawn) [Example 52, 2-[(9S)-7-(4-chlorophenyl)-4,5,13-trimethyl-3-thia-1,8,11,12-tetraazatricyclo[8.3.0.0^2,6]trideca-2(6),4,7,10,12-pentaen-9-yl]-N-(5-{[3-(2,6-dioxopiperidin-3-yl)-4-oxo-3,4-dihydrophthalazin-5-yl]amino}pentyl)acetamide]
IC50 [1, 2]: 0.127 µM

Cc1sc2c(c1C)C(c1ccc(Cl)cc1)=N[C@@H](CC(=O)NCCOCCOCCOCCn1cc(CNc3cccc4cnn(C5CCC(=O)NC5=O)c(=O)c34)nn1)c1nnc(C)n1-2 (stereo partly drawn) [Example 36, 2-[(9S)-7-(4-chlorophenyl)-4,5,13-trimethyl-3-thia-1,8,11,12-tetraazatricyclo[8.3.0.0^2,6]trideca-2(6),4,7,10,12-pentaen-9-yl]-N-{2-[2-(2-{2-[4-({[3-(2,6-dioxopiperidin-3-yl)-4-oxo-3,4-dihydrophthalazin-5-yl]amino}methyl)-1H-1,2,3-triazol-1-yl]ethoxy}ethoxy)ethoxy]ethyl}acetamide]
DC50 (BRD4): 0.663 µM
IC50 [1, 2]: > 1 µM

Cc1sc2c(c1C)C(c1ccc(Cl)cc1)=N[C@@H](CC(=O)Nc1cccc(OCCOCCOCCNc3cccc4c(=O)n(C5CCC(=O)NC5=O)ncc34)c1)c1nnc(C)n1-2 (stereo partly drawn) [Ex. 30, 2-[(9S)-7-(4-chlorophenyl)-4,5,13-trimethyl-3-thia-1,8,11,12-tetraazatricyclo[8.3.0.0^2,6]trideca-2(6),4,7,10,12-pentaen-9-yl]-N-(3-{2-[2-(2-{[2-(2,6-dioxopiperidin-3-yl)-1-oxo-1,2-dihydrophthalazin-5-yl]amino}ethoxy)ethoxy]ethoxy}phenyl)acetamide]
IC50 [1, 2]: > 1 µM

Cc1sc2c(c1C)C(c1ccc(Cl)cc1)=N[C@@H](CC(=O)NCC#Cc1ccc3c(=O)n(C4CCC(=O)NC4=O)ncc3c1)c1nnc(C)n1-2 (stereo partly drawn) [Example 40, 2-((S)-4-(4-chlorophenyl)-2,3,9-trimethyl-6H-thieno[3,2-f][1,2,4]triazolo[4,3-a][1,4]diazepin-6-yl)-N-(3-(2-(2,6-dioxopiperidin-3-yl)-1-oxo-1,2-dihydrophthalazin-6-yl)prop-2-yn-1-yl)acetamide]
BRD4 degradation (in words) (BRD4): effectively degraded
DC50 (BRD4): 0.0109 µM
IC50 [1, 2]: 0.227 µM
IC50 [1, 3]: < 0.25 µM

Cc1sc2c(c1C)C(c1ccc(Cl)cc1)=N[C@@H](CC(=O)NCCN1CCN(c3ccc4c(=O)n(C5CCC(=O)NC5=O)ncc4c3)CC1)c1nnc(C)n1-2 (stereo partly drawn) [Example 48, 2-((S)-4-(4-chlorophenyl)-2,3,9-trimethyl-6H-thieno[3,2-f][1,2,4]triazolo[4,3-a][1,4]diazepin-6-yl)-N-(2-(4-(2-(2,6-dioxopiperidin-3-yl)-1-oxo-1,2-dihydrophthalazin-6-yl)piperazin-1-yl)ethyl)acetamide]
BRD4 degradation (in words) (BRD4): effectively degraded
DC50 (BRD4): 0.0059 µM
IC50 [1, 2]: 0.00215 µM
IC50 [1, 3]: < 0.25 µM

Cc1sc2c(c1C)C(c1ccc(Cl)cc1)=N[C@@H](CC(=O)NCc1cn(CCOCCOCCOCCNc3cccc4cnn(C5CCC(=O)NC5=O)c(=O)c34)nn1)c1nnc(C)n1-2 (stereo partly drawn) [Ex. 32, 2-((S)-4-(4-chlorophenyl)-2,3,9-trimethyl-6H-thieno[3,2-f][1,2,4]triazolo[4,3-a][1,4]diazepin-6-yl)-N-((1-(2-(2-(2-(2-((3-(2,6-dioxopiperidin-3-yl)-4-oxo-3,4-dihydrophthalazin-5-yl)amino)ethoxy)ethoxy)ethoxy)ethyl)-1H-1,2,3-triazol-4-yl)methyl)acetamide]
IC50 [1, 2]: > 1 µM

Cc1sc2c(c1C)C(c1ccc(Cl)cc1)=N[C@@H](CC(=O)NCc1cn(CCOCCOCCNc3cccc4cnn(C5CCC(=O)NC5=O)c(=O)c34)nn1)c1nnc(C)n1-2 (stereo partly drawn) [Ex. 31, 2-((S)-4-(4-chlorophenyl)-2,3,9-trimethyl-6H-thieno[3,2-f][1,2,4]triazolo[4,3-a][1,4]diazepin-6-yl)-N-((1-(2-(2-(2-((3-(2,6-dioxopiperidin-3-yl)-4-oxo-3,4-dihydrophthalazin-5-yl)amino)ethoxy)ethoxy)ethyl)-1H-1,2,3-triazol-4-yl)methyl)acetamide]
IC50 [1, 2]: > 1 µM

Cc1sc2c(c1C)C(c1ccc(Cl)cc1)=N[C@@H](CC(=O)NCCOc1cccc3c(=O)n(C4CCC(=O)NC4=O)ncc13)c1nnc(C)n1-2 (stereo partly drawn) [Example 46, 2-((S)-4-(4-chlorophenyl)-2,3,9-trimethyl-6H-thieno[3,2-f][1,2,4]triazolo[4,3-a][1,4]diazepin-6-yl)-N-(2-((2-(2,6-dioxopiperidin-3-yl)-1-oxo-1,2-dihydrophthalazin-5-yl)oxy)ethyl)acetamide]
IC50 [1, 2]: > 1 µM

Cc1sc2c(c1C)C(c1ccc(Cl)cc1)=N[C@@H](CC(=O)Nc1cccc(OCCOCCOCCNc3ccc4c(=O)n(C5CCC(=O)NC5=O)ncc4c3)c1)c1nnc(C)n1-2 (stereo partly drawn) [Example 41, 2-((S)-4-(4-chlorophenyl)-2,3,9-trimethyl-6H-thieno[3,2-f][1,2,4]triazolo[4,3-a][1,4]diazepin-6-yl)-N-(3-(2-(2-(2-((2-(2,6-dioxopiperidin-3-yl)-1-oxo-1,2-dihydrophthaazin-6-yl)amino)ethoxy)ethoxy)ethoxy)phenyl)acetamide]
BRD4 degradation (in words) (BRD4): effectively degraded
DC50 (BRD4): 0.0044 µM
IC50 [1, 2]: 0.137 µM
IC50 [1, 3]: < 0.25 µM

Cc1sc2c(c1C)C(c1ccc(Cl)cc1)=N[C@@H](CC(=O)NCCCCCNc1cccc3c(=O)n(C4CCC(=O)NC4=O)ncc13)c1nnc(C)n1-2 (stereo partly drawn) [Example 51, 2-[(9S)-7-(4-chlorophenyl)-4,5,13-trimethyl-3-thia-1,8,11,12-tetraazatricyclo[8.3.0.0^2,6]trideca-2(6),4,7,10,12-pentaen-9-yl]-N-(5-{[2-(2,6-dioxopiperidin-3-yl)-1-oxo-1,2-dihydrophthalazin-5-yl]amino}pentyl)acetamide]
IC50 [1, 2]: 0.101 µM

Cc1sc2c(c1C)C(c1ccc(Cl)cc1)=N[C@@H](CC(=O)Nc1cccc(OCCOCCOCCNc3ccc4cnn(C5CCC(=O)NC5=O)c(=O)c4c3)c1)c1nnc(C)n1-2 (stereo partly drawn) [Example 42, 2-((S)-4-(4-chlorophenyl)-2,3,9-trimethyl-6H-thieno[3,2-f][1,2,4]triazolo[4,3-a][1,4]diazepin-6-yl)-N-(3-(2-(2-(2-((3-(2,6-dioxopiperidin-3-yl)-4-oxo-3,4-dihydrophthalazin-6-yl)amino)ethoxy)ethoxy)ethoxy)phenyl)acetamide]
BRD4 degradation (in words) (BRD4): effectively degraded
DC50 (BRD4): 0.0107 µM
IC50 [1, 2]: 0.0203 µM
IC50 [1, 3]: < 0.25 µM

Cc1sc2c(c1C)C(c1ccc(Cl)cc1)=N[C@@H](CC(=O)NCC1CCN(c3cccc4cnn(C5CCC(=O)NC5=O)c(=O)c34)C1)c1nnc(C)n1-2 (stereo partly drawn) [Example 50, 2-((S)-4-(4-chlorophenyl)-2,3,9-trimethyl-6H-thieno[3,2-f][1,2,4]triazolo[4,3-a][1,4]diazepin-6-yl)-N-((1-(3-(2,6-dioxopiperidin-3-yl)-4-oxo-3,4-dihydrophthalazin-5-yl)pyrrolidin-3-yl)methyl)acetamide]
IC50 [1, 2]: 0.622 µM

Cc1sc2c(c1C)C(c1ccc(Cl)cc1)=N[C@@H](CC(=O)NCCNc1cccc3cnn(C4CCC(=O)NC4=O)c(=O)c13)c1nnc(C)n1-2 (stereo partly drawn) [Example 43, 2-((S)-4-(4-chlorophenyl)-2,3,9-trimethyl-6H-thieno[3,2-f][1,2,4]triazolo[4,3-a][1,4]diazepin-6-yl)-N-(2-((3-(2,6-dioxopiperidin-3-yl)-4-oxo-3,4-dihydrophthalazin-5-yl)amino)ethyl)acetamide]
DC50 (BRD4): 0.185 µM
IC50 [1, 2]: > 1 µM

Cc1sc2c(c1C)C(c1ccc(Cl)cc1)=N[C@@H](CC(=O)NCC1CCN(c3cccc4cnn(C5CCC(=O)NC5=O)c(=O)c34)CC1)c1nnc(C)n1-2 (stereo partly drawn) [Example 53, 2-((S)-4-(4-chlorophenyl)-2,3,9-trimethyl-6H-thieno[3,2-f][1,2,4]triazolo[4,3-a][1,4]diazepin-6-yl)-N-((1-(3-(2,6-dioxopiperidin-3-yl)-4-oxo-3,4-dihydrophthalazin-5-yl)piperidine-4-yl)methyl)acetamide]
IC50 [1, 2]: > 1 µM
